From patent US20080206253A1, “Method For Preventing or Treating Pain in a Mammal” (priority 2005, published 2008)
Entries after “also recorded” stand apart in the source; their conditions may differ.

What was measured:
[1] = tested on: rats, formalin-injected hind paw; assay: Formalin-induced flinching (paw formalin test); assay type: in vivo, rat
Experimental: In recent work it was shown that inhibition of spinal p38 MAP kinase attenuated formalin-induced flinching. Svensson et al., J Neurochem 86: 1534-1544, 2003b. To examine the contribution of p38α and p38β in this experimental model of hyperalgesia, animals were injected with p38α, p38β AS or MS IT for five days. These animals were then examined on the formalin test. Unilateral intraplantar formalin solution (2.5%) caused a biphasic flinching pattern where the first 9 minutes are referred to as phase I and the following 50 minutes (min 10-60) as phase II. Yaksh et al., J Neurosci 21: 5847-5853, 2001a. The phase II flinching is considered to represent afferent input initiated spinal facilitation. Dickenson and Sullivan, Neurosci Lett 83: 207-211, 1987; Puig and Sorkin, Pain 64: 345-355, 1996. […] To further confirm the role of p38 to injury-induced pain behavior, a pharmacological inhibitor was also studied: SB203580, a p38α/β non-selective inhibitor.
To quantify formalin induced flinching, an automated sensing system was employed. Yaksh et al., J Appl Physiol 90: 2386-2402, 2001b. Briefly, a soft metal band was placed on the hind paw of the animal being tested. Animals were allowed to acclimate in individual Plexiglas chambers for 30 min before being moved to a test chamber. Just before the animals were placed into the test chamber, they were briefly restrained in a cloth towel, and 2.5% formalin (50 μl) was injected into the dorsal side of the banded paw. Nociceptive behavior was quantified by automatically counting the incidences of spontaneous flinching or shaking of the injected paw. The flinches were counted for 1-min periods for 60 minutes and the flinch data are expressed as number of flinches per min and total flinches observed during phase I (0-9 min) and phase II (10-60 min).

[2] = tested on: phosphorylated p38 (P-p38); assay: Formalin-induced phosphorylation of spinal p38 (Western blot); assay type: in vivo, rat; details: IT p38α AS 30 μg or p38β AS 20 μg for 5 days; assessed 15 minutes after formalin; in comparison to MS treated rats
Experimental: Injection of formalin into the hind paw leads to phosphorylation of p38 MAP kinase in spinal cord, by 5 minutes after injection. Svensson et al., J Neurochem 86: 1534-1544, 2003b. A full time course was performed (0, 5, 15, 20, 30, 60 min) for formalin-induced phosphorylation of spinal p38 and found peak p38 phosphorylation at 15 min (FIG. 6A). As shown above, down regulation of spinal p380, leads to attenuation of formalin-induced hyperalgesia, it was hypothesized that down-regulation of spinal p38, would reduce the amount of phosphorylated p38 in the spinal cord after formalin injection.
(A) Representative western blots showing levels of P-p38, total p38 and β-actin in the contralateral (left side) and ipsilateral (right side) lumbar spinal cord at different time points after injection of formalin (2.5%, 50 μl) into the dorsal side of the right hind paw. (B) Rats were naïve (no IT treatment, no formalin paw injection) or treated with p38α AS (30 μg), p38β AS (20 μg) or missense (30 μg) for 5 days. On day six, formalin was injected to the hind paw and the level of phosphorylated p38 (P-p38) assessed 15 minutes after injection. […]
Western blot. […] After washing, the antibody-protein complexes were probed with appropriate secondary antibodies labeled with horseradish peroxidase for 1 hr at room temperature and detected with chemiluminescent reagents (SuperSignal, Pierce, Rockford, Ill.). […]

For “p38β AS: 20-nucleotide 2′-MOE phosphorothioate chimeric antisense GTATGTCCTCCTCGCGTGGA, beginning at position 439 in the rat p38β mRNA (all phosphorothioate, sugars by position and methylation of C not given here; 2'-MOE chimeric (gapmer) antisense)”, the “number of flinches during phase two” value ([1]; IT p38β AS (3-20 μg) daily for 5 days, compared to saline and MS treated animals, P<0.05 (10 and 20 μg)) was “statistical significant reduction; also recorded: statistically different” and the “phosphorylated p38 in the spinal cord after formalin injection” value [2] was “reduction of phosphorylated p38”.
In the case of “p38α AS: 20-nucleotide 2′-MOE phosphorothioate chimeric antisense AGGTGCTCAGGACTCCATTT, beginning at position 1081 in the rat p38α mRNA (all phosphorothioate, sugars by position and methylation of C not given here; 2'-MOE chimeric (gapmer) antisense)”, the “total number of flinches during phase I or II” value ([1]; IT oligonucleotide daily for 5 days, 2.5% formalin into paw, compared with IT saline or MS) is reported as “did not differ; also recorded: no statistical difference” and the “phosphorylated p38 in the spinal cord after formalin injection” value [2] is reported as “did not prevent spinal p38 phosphorylation”.
